Entries after “also recorded” stand apart in the source; their conditions may differ. No end group written: not given here.
Tests used:
BAEC = assay: Chemotaxis, micro-Boyden chamber assay; type: cell-based, bovine; details: up to 40 μg/ml
Experimental: (§1) Chemotaxis was evaluated using 48-well plastic Microtaxis micro-Boyden chambers. Polycarbonate filters with pore size of 8 μm were coated with fibronectin for 2 hours at 37° C. Conditioned medium from 3T3 cells served as a positive control. Test solution (26 μl) containing the tested peptides or protein or medium with no additions that served as control were placed in the lower chamber, covered with the filter. 50 μl cell suspension was introduced to the upper chamber of each well. The number of cells/well varied in the range of 5,000-10,000 in different experiments. The device loaded with cells was incubated at 37° C. for 4-5 hours. The filter was then removed and the non-migrating cells on its upper part were carefully wiped off with a damp cotton swab. The filter was fixed in methanol and stained with Accustain (modified Wright stain solution Sigma Diagnostics: St. Lois, Mo.). Cells that crossed or were retained within the filter were counted microscopically at low magnification so that the viewing field corresponded to the whole area of each well. Each experimental variant was performed in duplicated or triplicates and the data from, three successful experiments were normalized to the values of the positive control and averaged.
The chemotactic response of BAEC to a soluble gradient of […], the most haptotactic of the peptides studied was as follows. The results can be seen in FIG. 6. […] A similar, though more moderate, chemotaxis response to Cβ (SEQ ID NO:1) was obtained with HF.

tested cell lines = assay: Haptotaxis assay, statements over the tested cell lines; type: cell-based; details: ligands covalently bound to SB; for haptotactic response / cell binding to SB-ligand, in words: near confluent cell cultures
Experimental: (§2) Peptides or fibrinogen were covalently bound to CNBr activated sepharose beads (SB) (Pharmacia, Piscataway, N.J.) using techniques previously used to bind albumin, fibrinogen and thrombin. Briefly, CNBr-activated sepharose 4B (Pharmacia) was washed with 1N HCl, and suspended in the coupling buffer (pH 8.3), following the protocol supplied by the manufacturer. The peptides were dialyzed against the coupling buffer to remove Tris. Peptides (1 mg) were not highly water soluble. The peptides were dissolved in 1 mL 70% ethanol or dimethylformamide, and were then mixed into the coupling buffer containing 1 mL CNBr-activated sepharose. The suspension was gently agitated overnight, then centrifuged 500×g to pack the beads. This procedure covalently binds more than 95% of proteins or peptides including fibrinogen or peptides-CαE (SEQ ID NO:3), Cβ (SEQ ID NO:1) and preCγ (SEQ ID NO:2) to the beads determined by Abs280 readings of the solutions.
(§3) The migratory/adhesion response of cells to proteins (such as fibrinogen) or peptides covalently bound to SB was measured as follows. Cells were grown in 6 or 12 well plates to near confluence or in suspension until they covered about ½ to ⅔ of the plate surface. At that point, about […] of a suspension containing 50% v/v SB coated with the test protein or peptide were added to the plate and dispersed by gentle shaking for 1 min. The plate was then returned to the incubator and examined at different times by inverted phase microscopy.
(§4) The SB (naked or ligand bound) sedimented onto the nearly confluent cell layer and occasionally made physical contact with cell membranes on the plate (ascribed to Brownian motion or micro-convection currents). […] Typically, 300 beads (but not less then 200) were counted in each well and the ratio of SB bound to the cells relative to total number SB could be calculated (SB bound/SB total). Counting the percentage of SB attached to the cell surface at different time intervals provided a quantitative assay of the kinetics of the attachment of coated beads to cells. Negative control with uncoated SB or positive controls with SB-fibrinogen were employed with at least 3 wells measured for each. The statistical error was calculated from the square root of the total counts.
(§5) The peptides of the present invention were synthesized and tested in cell culture systems as described above. Essentially, peptides were covalently attached to sepharose beads to form SB-Cα (SEQ ID NO:4), SB-Cβ (SEQ ID NO:1), SB-PreCγ (SEQ ID NO:2), SB-Cγ (SEQ ID NO:5) and SB-CαE (SEQ ID NO:3), respectively, as was fibrinogen to form SB-Fib. The SB-peptide combination was then incubated with cultured cells. […] The haptotactic potency of the peptides is summarized in Table 3 with the percentage of SB-Fib/peptide attached to cells (by day 4) given in columns 2-5 of Table 3.

HF cells = assay: FACS analysis of binding of FITC-labeled peptides; type: cell-based, human; details: 100 μg/ml, medium with 0.1% albumin
Experimental: (§6) EC and HF cell monolayers were washed and then incubated with trypsin-versene. Cells were then washed with growth medium and resuspended in medium with 0.1% albumin. FITC-labeled peptide-Cβ (SEQ ID NO:1) was incubated with 5×10^5 EC cells (10 μg/ml or 100 μg/ml) or with 2.5×10^5 HF cells (100 μg/ml) in medium with 0.1% albumin. FITC-labeled peptide-CαE (SEQ ID NO:3) and Cα (SEQ ID NO:4) (10 μg/ml) was incubated with 5×10^5 EC cells in medium with 0.1% albumin. Cells were then washed with PBS and 1% albumin. Cells were resuspended in PBS and 1% albumin and then filtered through a mesh for FACS analysis, in which the FITC tluorescence was measured for each cell.
(§7) The control is without FITC-labeled peptide (background fluorescence).
(§8) In competition experiments, cells were incubated with various concentrations of unlabeled Cβ (SEQ ID NO:1) for 15 mins, an aliquot of Cβ^FITC (4 mM) was added and the sample was subjected to FACS analysis. […] The Cβ^FITC (SEQ ID NO:1) uptake experiments best fitted a linear-quadratic curve-fit.

cells such as HF or BAEC = assay: FACS competition and uptake experiments with Cβ-FITC; type: cell-based; parameters: dose or concentration left out as unconfirmed; details: preincubation with unlabeled Cβ for 15 mins
Experimental: as §8

HF [1] = assay: Chemotaxis, micro-Boyden chamber assay; type: cell-based, human; details: compared with BAEC
Experimental: as §1
The chemotactic response of BAEC to a soluble gradient of Cα (SEQ ID NO:1), the most haptotactic of the peptides studied was as follows. […]

[2] = tested on: bovine aortic endothelial cells (EC, BAEC); assay: Haptotaxis assay: attachment of ligand-coated SB to cultured cells; type: cell-based; details: for % Binding of peptide-coated SB to normal cultured cells: percentage of SB-ligand attached to cells by day 4
Experimental: as §2, §3, §4, §5

HF [3] = assay: Cell proliferation, MTS assay; type: cell-based, human; details: 0.4 nM-4 μM, 96 well plates
Experimental: Cell proliferation was evaluated by measuring cell density as a function of time by two different colorimetric assays. The MTS colorimetric assay (CellTitre 96 Aqueous Assay by Promega) is based on dehydrogenase conversion of MTS (methyl tetrazolium salt) by viable cells to […] (Ge M. Tang, G., Ryan. T. J. and Malik. A. B., “Fibrinogen degradation product fragment D induces endothelial cell detachment by activation of cell-mediated fibrinolysis”, J. Clin. Inves., 90:2508-2516 (1992)); the methylene blue (MB) assay is based on the staining of monolayer cells after their fixation, and reading the absorbence of the absorbed dye.
The MTS assay for viable cells was performed as follows: 30 μL of freshly prepared MTS/PMS were added to each well; following 2 hrs incubation at 37° C., the plates were placed on a computer driven microplate reader (Anthos HT-II, Salzburg, Austria), programmed to shake the plate for 1 minute before reading the optical density (OD) of the dye at 490 nm. The measurements were repeated following 4 and 6 hours of incubation.
Peptides (Cα (SEQ ID NO:4), […], PreCγ (SEQ ID NO:2) and CαE (SEQ ID NO:3)), up to 1 μg/mL or 100 μg/mL fibrinogen or thrombin (final concentrations) were added to the culture medium and cell numbers were assayed by day 3 using the MTS assay. The change in cell number was compared with that observed versus saline control. Of the 5 peptides tested at dosages up to 10 μg/mL (approximately equimolar to 1 μg/mL fibrinogen), none of the peptides exerted significant effect on cell proliferation (FIG. 7).

EC cells (BAEC) = assay: FACS analysis of binding of FITC-labeled peptides; type: cell-based, bovine; details: 10 μg/ml or 100 μg/ml, medium with 0.1% albumin
Experimental: as §6, §7, §8

[4] = tested on: normal human skin fibroblasts (HF); assay: Haptotaxis assay: attachment of ligand-coated sepharose beads (SB) to cultured cells; type: cell-based; details: for % Binding of peptide-coated SB to normal cultured cells: percentage of SB-ligand attached to cells by day 4
Experimental: as §2, §3, §4, §5

[5] = tested on: normal murine fibroblasts (MF); assay: Haptotaxis assay: attachment of ligand-coated SB to cultured cells; type: cell-based; details: for % Binding of peptide-coated SB to normal cultured cells: percentage of SB-ligand attached to cells by day 4
Experimental: as §2, §3, §4, §5

[6] = tested on: porcine smooth muscle cells (SMC); assay: as above; type: cell-based; details: for % Binding of peptide-coated SB to normal cultured cells: percentage of SB-ligand attached to cells by day 4
Experimental: as §2, §3, §4, §5

[7] = tested on: murine mammary adenocarcinoma cells (EMT-6); assay: as above; type: cell-based; details: for % Binding of peptide-coated SB to normal cultured cells: percentage of SB-ligand attached to cells by day 4
Experimental: as §2, §3, §4, §5

[8] = tested on: human ovarian carcinoma cells (OV-1063); assay: as above; type: cell-based; details: percentage of SB-ligand attached to cells by day 4
Experimental: as §2, §3, §4, §5

[9] = tested on: normal human keratinocytes; assay: as above; type: cell-based; details: Keratinocyte; percentage of SB-ligand attached to cells by day 4
Experimental: as §2, §3, §4, §5

| Substance | haptotactic response / cell binding to SB-ligand, in words (tested cell lines) | cell binding / haptotactic response to SB-ligand, in words [2] | number of cell lines bound by SB-ligand out of 7 tested (tested cell lines) | % Binding of peptide-coated SB to normal cultured cells [4] [%] | % Binding of peptide-coated SB to normal cultured cells [5] [%] | % Binding of peptide-coated SB to normal cultured cells [6] [%] | % Binding of peptide-coated SB to normal cultured cells [7] [%] | % Binding of peptide-coated SB to normal cultured cells [8] [%] | % Binding of peptide-coated SB to normal cultured cells [2] [%] | % Binding of peptide-coated SB to normal cultured cells [9] [%] | cell lines excepted from binding to SB-ligand (all other tested lines bound) (tested cell lines) | further results |
| --- | --- | --- | --- | --- | --- | --- | --- | --- | --- | --- | --- | --- |
| KGSWYSMRKMSMKIRPFFPQQ (Equivalent to the c-terminus of fibrinogen beta-chain) [Cβ, haptotactic peptide homologous to the carboxy terminus of the fibrinogen β chain, β 441-461] | highly haptotactic; also recorded: significant haptotactic responses | greatest haptotactic response | – | – | – | – | – | – | – | – | – | chemotactic response relative to negative control of 1% BSA serum-free medium (BAEC; BAEC): 3 times; chemotactic response of BAEC, in words (BAEC; soluble gradient, conditioned medium = 100% chemotaxis): highly significant chemotaxis; binding/uptake of FITC-labeled peptide by FACS, in words (HF cells): higher than that of CαE; effect of unlabeled peptide on uptake of Cβ-FITC (competition) (cells such as HF or BAEC): increased the level of total Cβ; chemotaxis response of HF, in words (HF [1]): more moderate; proliferative response of HF (MTS proliferation assay) (HF [3]): none of these peptides stimulated or inhibited proliferation; binding/uptake of FITC-labeled peptide by FACS, in words (EC cells (BAEC)): higher than that of CαE; also recorded: clearly bound to cells |
| SB-Cα: peptide-Cα (SEQ ID NO:4) covalently attached to sepharose beads (EADHEGTHSTKRGHAKSRP; also: attached to sepharose beads) [reference compound] | No cell binding | – | none | 0 | 0 | 0 | 1 | 0 | 0 | 0 | – | – |
| SB-CαE: peptide-CαE (SEQ ID NO:3) covalently attached to sepharose beads (RGADYSLRAVRMKIRPLVTQ; also: attached to sepharose beads) | next most potent | strong binding | 5 | 52 | 61 | 8 | 64 | 0 | 43 | 0 | with the exception of OV-1063, keratinocytes and cells derived from a leucocytic lineage | cell binding to SB-ligand, in words [4]: strong binding; cell binding to SB-ligand, in words [5]: strong binding; cell binding to SB-ligand, in words [6]: Weak attachment; cell binding to SB-ligand, in words [7]: strong binding |
| SB-Cβ: peptide-Cβ (SEQ ID NO:1) covalently attached to sepharose beads (KGSWYSMRKMSMKIRPFFPQQ; also: attached to sepharose beads) | most potent | – | 5 | 100 | 89 | 100 | 99 | 4 | 94 | 0 | with the exception of OV-1063, keratinocytes and cells derived from a leucocytic lineage | – |

— patent US20070009571A1, “Novel haptotactic peptides” (Hadasit Medical Research Services & Development Ltd., priority 1998, published 2007)
